# “Also recorded” adds a separate entry of the source. Read-outs that look alike come from different tables or passages of the source.
# How the values were obtained:
# [1] = treatment of oral infections; type: in vivo, human; details: 2% composition diluted to 0.1%; oral rinse twice daily
# Procedure: Compositions for treatment of oral infections may contain an aryl 2-acetoxyethanoic acid as the only active ingredient. In this case a phenyl 2-acetoxyethanoic acid or diphenyl 2-acetoxyethanoic acid 2% composition was formulated by dissolving the active ingredient 2 g in ethanol 78 ml and propylene glycol 20 ml. Before use, this composition was diluted to 0.1% with water by mixing one part of the composition with 19 parts of water. The treatment involves oral rinse, wash and gargle by keeping the diluted composition inside the oral cavity for a few minutes, and then spit out. Such procedure may be repeated twice daily for several days until the infection is eradicated usually within 5-7 days.
# [2] = system: Staphylococcus epidermidis; assay: MIC Agar Dilution Test, Staphylococcus epidermidis; type: cell-based; details: S. epidermidis
# Description: (§1) The following strains of microorganisms were used in Minimum Inhibitory Concentration (MIC) tests for phenyl 2-acetoxyethanoic acid in this example and for benzoyl peroxide, chlorhexidine gluconate and triclosan in the following examples. In total, five strains were used for S. aureus, five strains were used for S. epidermidis, two strains were used for M. sedentarius, three strains were used for M. luteus, two strains were used for B. epidermis, three strains were used for C. minutissium, one strain was used for S. marcescens, three strains were used for P. aeruginosa, four strains were used for E. coli, and thirty-two strains were used for P. acnes.
# (§2) Antimicrobial effects were determined based on MIC Agar Dilution Test utilizing Trypticase Soy Agar II (BBL) incorporation plates with and without 10% intralipid (Kabi Pharmacia Inc.). Initially, phenyl 2-acetoxyethanoic acid was prepared as a 2 mg/ml (0.2%) solution in water. This solution with serial dilution was incorporated into the test agar plates. The MIC test gave similar results when the same species but a different strain was used.
# (§3) Under the same test conditions described in Example 1, benzoyl peroxide was prepared as a 2.5 mg/ml (0.25%) solution in water. This solution with serial dilution was incorporated into the test agar plates. Typical test results are shown as follows.
# (§4) Under the same test conditions described in Example 1, chlorhexidine gluconate was prepared as a 2 mg/ml (0.2%) solution in water. This solution with serial dilution was incorporated into the test agar plates. Typical test results are shown as follows.
# (§5) Under the same test conditions described in Example 1, triclosan was prepared as a 10 mg/ml (1%) solution in water. This solution with serial dilution was incorporated into the test agar plates. Typical test results are shown as follows.
# (§6) Ten different species of bacteria were used in Minimum Inhibitory Concentration (MIC) tests. The bacteria include S. aureus, S. epidermidis,M. sedentarius, M. luteus, B. epidermis, C. minutissium, S. marcescens, P. aeruginosa, E. coli, and P. acnes. In addition various sources and strains of these bacteria were also included in the tests, and up to 32 different strains of P. acnes were used.
# (§7) The test substance selected from phenyl 2-acetoxyethanoic acid, benzoyl peroxide, chlorhexidine gluconate and triclosan was dissolved in water, and the solution with serial dilution was incorporated into the test agar plates. The plates containing different concentrations of test substance were inoculated with a strain of bacterium. MIC is defined as the lowest concentration of the test substance in the plate in which there is no growth of the microorganism.
# [3] = prophylactic effect in preventing the development of axillary foul odor; type: in vivo, human; details: Example 5; 0.5% solution, topical; one person; up to 24 hours
# Procedure: A typical test for prophylactic effect in preventing the development of axillary foul odor was carried out as follows. A test composition was prepared by dissolving 0.5 g of phenyl 2-acetoxyethanoic acid or diphenyl 2-acetoxyethanoic acid in 70 ml of ethanol and 30 ml of propylene glycol. The control vehicle was prepared by mixing 70 ml of ethanol and 30 ml of propylene glycol. A human subject was instructed to take a shower in the morning using ordinary soap to clean the body surfaces. After the skin was dried, the test composition was topically applied to the left underarm area only. The vehicle control was topically applied to the right underarm area. Both underarm areas were monitored by the subject and at least one other person approximately every 8 hours to determine whether the test composition had any prophylactic effect in preventing the development of underarm foul odor in the left axilla as compared to the vehicle alone on the right control armpit.
# Presence or substantial absence of foul odor, detected by smell, was adopted as the criteria for ineffectiveness or effectiveness of the test composition.
# A total of seven subjects (four females; three males) participated in several studies. Most of these subjects could not use existing commercial products of antiperspirants or deodorants because of severe irritation after topical application. […]
# Micrococcus sedentarius = assay: MIC Agar Dilution Test, Micrococcus sedentarius; type: cell-based; details: Kytococcus sedentarius, M. sedentarius
# Description: as §1, §2, §3, §4, §5, §6, §7
# [4] = system: Corynebacterium minutissium; assay: MIC Agar Dilution Test, Corynebacterium minutissium; type: cell-based; details: C. minutissium
# Description: as §1, §2, §3, §4, §5, §6, §7
# [5] = axillary antiodor effectiveness (treatment); type: in vivo, human; details: 0.5%
# Description: In another study the subjects were instructed not to take a shower in the morning. After the foul odor developed in both axillae, the subjects were instructed to apply the test composition containing 0.5% phenyl 2-acetoxyethanoic acid or diphenyl 2-acetoxyethanoic acid on the left underarm area and the control vehicle on the right underarm area. Topical applications were made once daily for several days.
# Usually the left underarm ceased emanating any detectable foul odor after 1 day of topical use. The subjects were instructed at this time to apply the test composition containing 0.5% phenyl 2-acetoxyethanoic acid or diphenyl 2-acetoxyethanoic acid on the right underarm area also. Topical applications were made once daily for several days. The right axilla ceased to emanate any detectable foul odor after 1 to 2 days of topical use.
# Escherichia coli = assay: MIC Agar Dilution Test, Escherichia coli; type: cell-based; details: E. coli
# Description: as §1, §2, §3, §4, §5, §6, §7
# Staphylococcus aureus = assay: MIC Agar Dilution Test, Staphylococcus aureus; type: cell-based; details: S. aureus
# Description: as §1, §2, §3, §4, §5, §6, §7
# Brevibacterium epidermis = assay: MIC Agar Dilution Test, Brevibacterium epidermis; type: cell-based; details: B. epidermis
# Description: as §1, §2, §3, §4, §5, §6, §7
# [6] = 10% intralipid, read-out: MIC Lipid
# [7] = no lipid, read-out: MIC No Lipid
structure (smiles),measurement,setting,value
CC(=O)OC(C(=O)O)c1ccccc1 (centres unmarked) [phenyl 2-acetoxyethanoic acid],time within which oral infection is usually eradicated,[1],5 to 7 days
same,MIC,[2]; [6],1000 µg/mL
same,MIC,[2]; [7],1000 µg/mL
same,prevention of axillary foul odor (left underarm),[3],"did not produce any detectable odor, even after 24 hours; also recorded: substantially effective in preventing the development of axillary foul odor"
same,MIC,Micrococcus sedentarius; [6],500 µg/mL
same,MIC,Micrococcus sedentarius; [7],500 µg/mL
same,MIC,[4]; [6],500 µg/mL
same,MIC,[4]; [7],500 µg/mL
same,overall axillary antiodor effectiveness,[5]; topical,topically effective in eradicating the axillary foul odor
same,left axilla on continued use,"[5]; continued, once daily for several days",continued to maintain the condition free of any offensive foul odor
same,time after which left underarm usually ceased emanating any detectable foul odor,"[5]; no-shower study, left side",1 days
same,"intensity of foul odor, left underarm","[5]; no-shower study, once daily",diminished in intensity of foul odor after one to two days of topical application
same,time after which left underarm ceased emanating any detectable foul odor,"[5]; Example 6, once daily, one person, left side",1 days
same,time after which right axilla ceased to emanate any detectable foul odor,"[5]; Example 6, right side, formerly vehicle",1 days
same,MIC,Escherichia coli; [6],1000 µg/mL
same,MIC,Escherichia coli; [7],1000 µg/mL
same,MIC,Staphylococcus aureus; [6],500 µg/mL
same,MIC,Staphylococcus aureus; [7],500 µg/mL
same,MIC,Brevibacterium epidermis; [6],1000 µg/mL
same,MIC,Brevibacterium epidermis; [7],1000 µg/mL

# Source: patent US6046238A, “Method for treating or preventing the spread of acne vulgaris” (TriStrata, Inc., priority 1999, dated 2000)
